How the values were obtained:
[1] = system: left ventricular (LV) muscle mass and LV systolic and diastolic function; details: 58 patients with primary glomerulonephritis and moderate chronic renal failure; cited from earlier work
[2] = system: left ventricular hypertrophy (LVH) in ESRD dialysed patients; assay: Clinical trial of propionyl L-carnitine in ESRD patients on dialysis (multicentre, randomized, double-blind, placebo-controlled; echocardiography); assay type: in vivo
Procedure: A clinical trial (multicentre, parallel, randomized, double-blind, dose-ranging placebo-controlled study in 300 patients) useful for evaluating both preventive and/or curative effect of the treatment with propionyl L-carnitine (3 and 6 mg/kg given intravenously three times a week at the end of the hemodyalisis session for 26 weeks) has been done.
Inclusion Criteria • 1) male or female out-patients aged >18 years, suffering from ESRD on bicarbonate dialysis three times a week; • 2) patients who have reached a certain degree of dialytic stability (at least since six months on dialysis), so that the variability due to the progressive patient adaptation of the therapeutic treatment is controlled, presenting no clinical signs of hydric overload at the end of dialysis; • 3) patients showing a degree of cardiac deterioration defined as inter-ventricular septum and left ventricular wall thickness >11 mm; • 4) patients with left ventricular ejection fraction >40%; • 5) patients under stable pharmacological treatment for at least three months; • 6) absence of acute ischaemic events (effort angina, unstable angina, AMI) during the last three months; • 7) presence of an adequate acoustic window and a good echogenicity; • 8) capacity of co-operating with the administered questionnaire. […]

SMILES	LV ejection fraction, early and late transmittal flow velocities and early to late LV inflow velocities ratio [1]	signs of LVH (a)-(c): left-ventricular septum and posterior wall thickness, end-systolic and end-diastolic size and volume, ejection fraction ([2]; 3 and 6 mg/kg intravenously three times a week at end of hemodialysis for 26 weeks, preliminary ANOVA analysis, treated versus control group)	progression of the signs of LVH (a)-(c) respect to base line ([2]; 3 and 6 mg/kg intravenously three times a week for 26 weeks, T26 vs T0 in treated group, control group worsened)
C[C@H](CS)C(=O)N1CCC[C@H]1C(=O)O [captopril]	not significantly affected	–	–
CCC(=O)O[C@H](CC(=O)[O-])C[N+](C)(C)C [propionyl L-carnitine]	–	useful for treating the signs of LVH	able to reduce the progression of the signs of LVH
CCOC(=O)[C@H](CCc1ccccc1)N[C@@H](C)C(=O)N1CCC[C@H]1C(=O)O [enalapril]	not significantly affected	–	–
